Experimental data published in patent US4503236A, “Antiallergic 4Hfuro[3,2-b]indoles” (Warner-Lambert Company, priority 1983, dated 1985).

Each molecule was assayed on Trachea and lungs (ovalbumin-sensitized guinea pig tissue, antigen challenge) (assay: modified Shultz-Dale procedure: inhibition of antigen-induced contraction of isolated trachea and lung from ovalbumin-immunized guinea pigs). Conditions: 3 × 10^-5 M; isolated guinea pig tissue (trachea/lung not distinguished), antigen challenge 10 min after drug.
Format: cell-based
Description: The compounds of the invention display antiallergic properties when tested by the following procedure [modification of Shultz-Dale procedure, Agents and Actions, 8, 171 (1978)]: Guinea pigs, after one week environmental stabilization, are immunized IP with 1 mg crude ovalbumin (OA) in 1 ml saline with 50% complete Freund's Adjuvant (CFA). Twenty-one days later animals are killed by a blow to the head. Trachea and lungs are removed and placed in Tyrode's solution, pH 7.4, aerated with 5% CO2 in O2.
Trachea: Connective and vascular tissue are removed and a wooden stick is inserted in the lumen. One end of the trachea is fixed with a pin. The stick is held against a surgical blade and rotated in a helical manner. Spirals formed are cut into two lengths, each containing two or more bands of transverse strips of tracheal muscle. The tissue is attached to transducers and maintained at 5 g tension. Sensitivity of the preamplifier is 2.0 mv/cm and of the amplifier, 0.02 mv/cm, with calibration of 20 mg force displacement per mm. After 45 minutes equilibration, the tissue is challenged with antigen.
Lung: The heart and lung are removed as a unit and the lung is perfused with buffer by the spontaneously beating heart for several minutes. Distal strips of lung from the diaphragmatic lobe approximately 0.3 cm wide and 3 cm long are removed and attached to transducers. Preload is 0.3 g of tension with sensitivity at 0.02 mv/cm on the amplifier and 0.5 mv/cm on the preamp and calibration of 1 mm=5 mg force displacement.
Test Design for Evaluation of Drugs: All tissues are challenged repetitively with the same concentration of antigen. After each concentration, the tissue is washed and allowed to stabilize. The original baseline tension is reestablished before the next challenge. Control contractions in lung must develop a minimum of 10 mg and in trachea, a minimum of 40 mg tension above baseline. When the contractions are reproducible, drug is introduced. Drug effects of baseline are monitored. Ten minutes later, after readjustment to baseline tension as indicated by consecutive reading one minute apart, tissue is again challenged with antigen. The concentration is monitored for at least 15 minutes and the tissue is washed free of antigen and drug. […] Tissues are not used again. If inhibition takes place, a final antigen challenge is repeated to establish that the tissue is reactive to antigen.
With CCOc1c(C(=O)Nc2nnn[nH]2)oc2c3ccccc3n(-c3ccccc3)c12 [H, C6 H5, C2 H5,, 3-Ethoxy-4-phenyl-N(1H-tetrazol-5-yl)-4H-furo[3,2-b]-indole-2-carboxamide] the “% Inhibition” value was 100%.

Same assay, conditions: Cavia porcellus, 10 min; 3 × 10^-5 M; isolated guinea pig tissue (trachea/lung not distinguished), antigen challenge 10 min after drug
COc1c(C(=O)O)oc2c3ccccc3n(-c3ccccc3)c12 [H, C6 H5, CH3, COOH, 3-Methoxy-4-phenyl-4H-furo[3,2-b]indole-2-carboxylic acid] gave an inhibition at 30 µM of 100%.
COc1ccc2c(c1)c1oc(-c3nnn[nH]3)c(OC)c1n2-c1ccccc1 [CH3 O, C6 H5, CH3,, 3,7-Dimethoxy-4-phenyl-2-(1H-tetrazol-5-yl)-4H-furo[3,2-b]indole] was tested, and the inhibition at 30 µM was 100%.
With CCOc1c(-c2nnn[nH]2)oc2c3ccccc3n(-c3ccccc3)c12 [H, C6 H5, C2 H5,, 3-Ethoxy-4-phenyl-2(1H-tetrazol-5-yl)-4H-furo[3,2-b]indole] the inhibition at 30 µM was 100%.
CCOc1c(C(=O)Nc2nnn[nH]2)oc2c3cc(OC)ccc3n(-c3ccccc3)c12 [CH3 O, C6 H5, C2 H5,, 3-Ethoxy-7-methoxy-4-phenyl-N-(1H-tetrazol-5-yl)-4H-furo[3,2-b]indole-2-carboxamide] gave an inhibition at 30 µM of 100%.
COc1ccc2c(c1)c1oc(C(=O)Nc3nnn[nH]3)c(OC)c1n2-c1ccccc1 [CH3 O, C6 H5, CH3,, 3,7-Dimethoxy-4-phenyl-N-(1H-tetrazol-5-yl)-4H-furo[3,2-b]indole-2-carboxamide] showed an inhibition at 30 µM of 100%.
COc1c(C(=O)Nc2nnn[nH]2)oc2c3ccccc3n(C)c12 [H, CH3, CH3,, 3-Methoxy-4-methyl-N-(1H-tetrazol-5-yl)-4H-furo[3,2-b]indole-2-carboxamide] was tested, and the inhibition at 30 µM was 38%.
In the case of CCOc1c(C(=O)O)oc2c3cc(OC)ccc3n(-c3ccccc3)c12 [CH3 O, C6 H5, C2 H5, COOH, 3-Ethoxy-7-methoxy-4-phenyl-4H-furo[3,2-b]indole-2-carboxylic acid], the inhibition at 30 µM is reported as 100%.
In the case of COc1ccc2c(c1)c1oc(C(=O)O)c(OC)c1n2-c1ccccc1 [CH3 O, C6 H5, CH3, COOH, 3,7-Dimethoxy-4-phenyl-4H-furo[3,2-b]indole-2-carboxylic acid], the inhibition at 30 µM is reported as 100%.
COc1c(C(=O)Nc2nnn[nH]2)oc2c3ccccc3n(-c3ccccc3)c12 [H, C6 H5, CH3,, 3-Methoxy-4-phenyl-N-(1H-tetrazol-5-yl)-4H-furo[3,2-b]indole-2-carboxamide] gave an inhibition at 30 µM of 100%.
With CCOc1c(C(=O)O)oc2c3ccccc3n(-c3ccccc3)c12 [H, C6 H5, C2 H5, COOH, 3-Ethoxy-4-phenyl-4H-furo[3,2-b]indole-2-carboxylic acid] the inhibition at 30 µM was 100%.
For COc1c(-c2nnn[nH]2)oc2c3ccccc3n(C)c12 [H, CH3, CH3,, 3-Methoxy-4-methyl-2-(1H-tetrazol-5-yl)-4H-furo[3,2-b]indole], the inhibition at 30 µM was 26%.
